Experimental data from US20250099448A1, “HETEROCYCLIC COMPOUNDS” (Hoffmann-La Roche Inc., priority 2022, published 2025).

molecular target: T1, MAGL protein (Homo sapiens, UniProt Q99685); assay: 2-AG assay: MAGL inhibitory activity by hydrolysis of 2-arachidonoylglycerol to arachidonic acid, followed by mass spectrometry; assay type: biochemical; conditions: 8 μM 2-arachidonoylglycerol, 15 min preincubation, 30 min reaction at RT, RapidFire MS readout
T1 sequence (Q99685 1-303): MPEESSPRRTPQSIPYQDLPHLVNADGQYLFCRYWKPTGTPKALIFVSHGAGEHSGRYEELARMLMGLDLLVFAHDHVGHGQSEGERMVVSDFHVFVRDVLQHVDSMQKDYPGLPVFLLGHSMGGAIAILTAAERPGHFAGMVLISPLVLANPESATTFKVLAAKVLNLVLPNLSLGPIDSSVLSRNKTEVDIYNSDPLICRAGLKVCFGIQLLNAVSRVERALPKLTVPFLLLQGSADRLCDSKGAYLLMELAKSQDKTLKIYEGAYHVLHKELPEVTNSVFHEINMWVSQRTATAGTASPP
How it was run: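 Activity was measured by RapidFire SPE–triple-quad MS as the ratio of arachidonic acid to d8-arachidonic acid after 2-AG hydrolysis (8 μM substrate, 30 min, RT, acetonitrile quench). Compounds, tested from 12.5 μM down to […], were first preincubated 15 min with MAGL in TRIS/EDTA/Tween-20 buffer containing 2.5% DMSO.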

Structure (SMILES)	IC50
O=C(N1CC2(CC(Cc3cncc(C(F)(F)F)c3)C2)C1)N1CC2(CC(c3nnc(C4CC4)[nH]3)C2)C1 [compound 114]	0.22 nM
O=C(N1CC2(CC(Cc3ccc4c(C(F)(F)F)cn(CCO)c4n3)C2)C1)N1CC2(CC(c3nc(C4CC4)n[nH]3)C2)C1 [Example 858]	0.02 nM
O=C(N1CC(OCc2ccc(C(F)(F)F)cc2F)C1)N1CC2(CC(c3nnc(C4CC4)[nH]3)C2)C1 [compound 311]	2.35 nM
COc1cc(COC2CCN(C(=O)N3CC4(CC(c5nc(C6CC6)n[nH]5)C4)C3)CC2)ccc1C#N [Example 904]	159 nM
O=C(N1CC2(CC(Cc3ccc(C(F)(F)F)nn3)C2)C1)N1CC2(CC(c3nnc(C4CC4)[nH]3)C2)C1 [compound 22]	0.8 nM
CC(C)(C)CS(=O)(=O)NC1CC2(C1)CN(C(=O)N1CC3(CC(c4nnc(C5CC5)[nH]4)C3)C1)C2 [compound 225]	3.67 nM
O=C(N1CC(Oc2ccc(C(F)(F)F)cc2)C1)N1CC2(CC(c3nnc(C4(O)CC4)[nH]3)C2)C1 [compound 323]	12.3 nM
N=S(=O)(c1ccc(COC2CN(C(=O)N3CC4(CC(c5nc(C6CC6)n[nH]5)C4)C3)C2)c(F)c1)C(F)(F)F (centres unmarked) [Example 632, [6-(3-cyclopropyl-1H-1,2,4-triazol-5-yl)-2-azaspiro[3,3]heptan-2-yl]-[3-[2-fluoro-4-(trifluoromethylsulfonimidoyl)benzyl]oxyazetidin-1-yl]methanone]	12.3 nM
CC1(NCC2CC3(C2)CN(C(=O)N2CC4(CC(c5nnc(C6CC6)[nH]5)C4)C2)C3)CS(=O)(=O)C1 [compound 357]	25.6 nM
O=C(N1CC(NS(=O)(=O)c2cccc(C(F)(F)F)c2)C1)N1CC2(CC(c3nnc(C4CC4)[nH]3)C2)C1 [compound 202]	332 nM
O=C(N1CC2(CC(c3nnc(C4CC4)[nH]3)C2)C1)N1CC2(C1)CN(S(=O)(=O)NCC1(C(F)(F)F)CC1)C2 [compound 216]	11 nM
Cc1csc(C(=O)N2CCN(C(=O)N3CC4(CC(c5nnc(C6CC6)[nH]5)C4)C3)CC2)c1 [Example 872, [4-[6-(5-cyclopropyl-4H-1,2,4-triazol-3-yl)-2-azaspiro[3.3]heptane-2-carbonyl]piperazino]-(4-methyl-2-thienyl)methanone]	1040 nM
O=C(N1CC(c2ccc(C3(C(F)(F)F)CC3)cc2)C1)N1CC2(CC(c3nnc(C4(O)CC4)[nH]3)C2)C1 [compound 227]	0.91 nM
O=C(N1CC2(CC(c3nnc(C4(O)CC4)[nH]3)C2)C1)N1CC2(C1)CN(S(=O)(=O)c1ccccc1OC(F)(F)F)C2 [compound 95]	47.5 nM
N=S(=O)(c1ccc(COC2CN(C(=O)N3CC4(CC(c5nc(C6(O)CC6)n[nH]5)C4)C3)C2)c(F)c1)C(F)(F)F (centres unmarked) [Example 576, [3-[2-fluoro-4-(trifluoromethylsulfonimidoyl)benzyl]oxyazetidin-1-yl]-[6-[3-(1-hydroxycyclopropyl)-1H-1,2,4-triazol-5-yl]-2-azaspiro[3.3]heptan-2-yl]methanone]	85.1 nM
Cc1cc(C(C)(C)C)nn1-c1ccc(C2CN(C(=O)N3CC4(CC(c5nnc(C6CC6)[nH]5)C4)C3)C2)cc1 [compound 277]	0.17 nM
CC(C)(O)Cn1nc(C2CCN(C(=O)N3CC4(CC(c5nnc(C6CC6)[nH]5)C4)C3)CC2)c2cc(Cl)ccc21 [Example 416, [4-[5-chloro-1-(2-hydroxy-2-methyl-propyl)indazol-3-yl]piperidino]-[6-(5-cyclopropyl-4H-1,2,4-triazol-3-yl)-2-azaspiro[3.3]heptan-2-yl]methanone]	13.3 nM
NS(=O)(=O)c1ccccc1CN1CC2(C1)CN(C(=O)N1CC3(CC(c4nnc(C5CC5)[nH]4)C3)C1)C2 [compound 170]	28.1 nM
CS(=O)(=O)c1cc(C(F)(F)F)ccc1CC1CC2(C1)CN(C(=O)N1CC3(CC(c4nnc(C5CC5)[nH]4)C3)C1)C2 [compound 39]	0.15 nM
O=C(N1CC(c2ccc(C3(C(=O)O)CC3)cc2)C1)N1CC2(CC(c3nnc(C4CC4)[nH]3)C2)C1 [Example 392, 1-[4 [1-[6-(5-cyclopropyl-4H-1,2,4-triazol-3-yl)-2-azaspiro[3.3]heptane-2-carbonyl]azetidin-3-yl]phenyl]cyclopropanecarboxylic Acid]	6.59 nM
O=C(N1CCN(Cc2ccc(C(F)(F)F)cn2)CC1)N1CC2(CC(c3nnc(C4CC4)[nH]3)C2)C1 [Example 876]	806 nM
O=C(N1CC(NS(=O)(=O)c2cccc(OC(F)(F)F)c2)C1)N1CC2(CC(c3nnc(C4CC4)[nH]3)C2)C1 [compound 205]	155 nM

Other lines, results leading:

IC50	Structure (SMILES)
33.3 nM	O=C(N1CC2(CC(c3nc(C4CC4)n[nH]3)C2)C1)N1CC2(CN(Cc3nc[nH]c3C(F)(F)F)C2)C1 [compound 795]
8.16 nM	O=C(N1CC2(CC(Cc3ncc(F)cc3Cl)C2)C1)N1CC2(CC(c3nc(C4CC(F)(F)C4)n[nH]3)C2)C1 [compound 617]
21.2 nM	CS(=O)(=O)c1cc(C(F)(F)F)ccc1CC1CC2(C1)CN(C(=O)N1CC3(CC(c4nc(C5COC5)n[nH]4)C3)C1)C2 [compound 827]
114 nM	O=C(N1CC2(CC(Cc3cnc(C(F)(F)F)cn3)C2)C1)N1CC2(CC(c3nc(C4CC(F)(F)C4)n[nH]3)C2)C1 [compound 465]
13.9 nM	O=C(N1CCC(c2nn(CCO)c3ccc(C(F)(F)F)cc23)CC1)N1CC2(CC(c3nnc(C4CC4)[nH]3)C2)C1 [compound 519]
187 nM	O=C(N1CC2(CC(Cc3ncc(C(F)(F)F)cc3F)C2)C1)N1CC2(CC(c3ncn[nH]3)C2)C1 [compound 620]
97.3 nM	O=C(N1CC2(CC(c3nc(C4CC4)n[nH]3)C2)C1)N1CC2(CN(Cc3noc(C(F)(F)F)n3)C2)C1 [compound 957]
1.48 nM	O=C(N1CC2(CC(Cc3cc(C(F)F)c[nH]c3=O)C2)C1)N1CC2(CC(c3nc(C4CC4)n[nH]3)C2)C1 [compound 956]
0.1 nM	N#Cc1cc(CC2CC3(C2)CN(C(=O)N2CC4(CC(c5nc(C6CC6)n[nH]5)C4)C2)C3)cc(C(F)(F)F)c1 [compound 867]
0.07 nM	O=C(N1CC2(CC(Cc3cc(C4(C(F)(F)F)CC4)[nH]n3)C2)C1)N1CC2(CC(c3nc(C4CC4)n[nH]3)C2)C1 [compound 945]
1.71 nM	CP(C)(=O)c1cc(F)cc(CC2CC3(C2)CN(C(=O)N2CC4(CC(c5nc(C6CC6)n[nH]5)C4)C2)C3)c1 [compound 680]
5.86 nM	N#Cc1cc(CC2CC3(C2)CN(C(=O)N2CC4(CC(c5nc(C6CC(F)(F)C6)n[nH]5)C4)C2)C3)ccc1C(F)(F)F [compound 547]
10.6 nM	N#Cc1ccc(CC2CC3(C2)CN(C(=O)N2CC4(CC(c5nc(C6CC(F)(F)C6)n[nH]5)C4)C2)C3)c(F)c1 [compound 486]
0.84 nM	O=C(N1CC2(CC(c3nc(C4(O)CC4)n[nH]3)C2)C1)N1CC2(CC[C@@H](Cc3ccc(S(=O)(=O)C(F)(F)F)cc3)C2)C1 [compound 599]
2.56 nM	O=C(N1CC2(CC(c3nc(C4CC4)n[nH]3)C2)C1)N1CC2(CN(Cc3sncc3C(F)(F)F)C2)C1 [compound 700]
0.6 nM	N=S(=O)(c1ccc(CC2CC3(C2)CN(C(=O)N2CC4(CC(c5nc(C6(O)CC6)n[nH]5)C4)C2)C3)cc1)C(F)(F)F (centres unmarked) [compound 558]

IC50	Structure (SMILES)
129 nM	CS(=O)(=O)c1cc(Cl)ccc1-c1ccc(C2CN(C(=O)N3CC4(CC(c5ncn[nH]5)C4)C3)C2)cc1 [compound 454]
12.1 nM	N#Cc1ccc(=O)n(CC2CC3(C2)CN(C(=O)N2CC4(CC(c5nc(C6CC6)n[nH]5)C4)C2)C3)c1 [compound 480]
0.04 nM	O=C(N1CC2(CC(Cc3cc(F)cc(S(=O)(=O)C(F)(F)F)c3)C2)C1)N1CC2(CC(c3nc(C4CC4)n[nH]3)C2)C1 [compound 654]
7.53 nM	O=C(N1CC2(CC(c3nc(C4(F)CC4)n[nH]3)C2)C1)N1CC2(CN(Cc3cc(C(F)(F)F)ns3)C2)C1 [compound 531]
478 nM	O=C(N1CC(C23CC(S(=O)(=O)c4ccc(C(F)(F)F)cn4)(C2)C3)C1)N1CC2(CC(c3nc(C4CC4)n[nH]3)C2)C1 [compound 807]
0.57 nM	O=C(N1CC2(CC(Cc3cn(C4CC4)nc3C(F)(F)F)C2)C1)N1CC2(CC(c3nc(C4CC4)n[nH]3)C2)C1 [compound 405]
1.12 nM	O=C(N1CC(c2cnc(OCC3(C(F)(F)F)CC3)cn2)C1)N1CC2(CC(c3nc(C4CC4)n[nH]3)C2)C1 [compound 469]
6.38 nM	CC(C)(C)c1noc(CN2CC3(C2)CN(C(=O)N2CC4(CC(c5nnc(C6CC6)[nH]5)C4)C2)C3)n1 [compound 886]
0.09 nM	COc1nc(C(F)(F)F)cnc1CC1CC2(C1)CN(C(=O)N1CC3(CC(c4nc(C5CC5)n[nH]4)C3)C1)C2 [compound 943]
3.45 nM	O=C(N1CC2(CCN(Cc3cc(C(F)(F)F)sn3)CC2)C1)N1CC2(CC(c3nc(C4CC4)n[nH]3)C2)C1 [compound 432]
2580 nM	CS(=O)(=O)c1ccc(CC2CC3(C2)CN(C(=O)N2CC4(CC(c5nc(C6CC(F)(F)C6)n[nH]5)C4)C2)C3)nc1 [compound 977]
14.3 nM	O=C(N1CC(C23CC(c4nnc(C5(C(F)(F)F)CC5)o4)(C2)C3)C1)N1CC2(CC(c3nc(C4CC4)n[nH]3)C2)C1 [compound 422]
0.44 nM	NC(=O)c1ccc(CC2CC3(C2)CN(C(=O)N2CC4(CC(c5nc(C6CC6)n[nH]5)C4)C2)C3)cc1OC(F)(F)F [compound 913]
2.63 nM	O=C(N1CC2(CC(c3nc(C4CC4)n[nH]3)C2)C1)N1CC2(CCN(Cc3ccc(S(=O)(=O)C(F)(F)F)cc3)C2)C1 [compound 703]
3.42 nM	O=C(N1CC2(CC(c3nc(C4CC4)n[nH]3)C2)C1)N1CC2(CN(Cc3cc(C(F)(F)F)ns3)C2)C1 [compound 713]
